Measured values reported in patent US10029986B2, “Alkynyl pyridine-substituted amide compound and pesticide” (NISSAN CHEMICAL INDUSTRIES, LTD., priority 2014, dated 2018).

Key:
Botrytis cinerea = test: Test on the preventive effect against cucumber gray mold (mycelium inoculation); assay type: in vivo; settings: 48 h, test solution A 500 ppm, 5 ml per pot, cucumber cotyledon, agar block inoculation, 2 days at 20° C.
Summary of the method: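 Cucumber cotyledons (Sagami Hanjiro) were sprayed with 5 ml per pot of a 500 ppm dilution of a 20 wt % emulsifiable concentrate. Next day, mycelial agar plugs of Botrytis cinerea were placed on cotyledons, held humid at 20° C for 2 days. Lesion proportion gave the control value; duplicate.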

Sclerotinia sclerotiorum = test: Test on the preventive effect against cucumber stem rot; assay type: in vivo; settings: 48 h, test solution A 500 ppm, 5 ml per pot, agar block inoculation, 2 days at 20° C.
Summary of the method: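 Cucumber (Sagami Hanjiro) at cotyledon stage sprayed with 5 ml/pot of 500 ppm compound from a 20 wt % emulsifiable concentrate, air-dried, then inoculated on seed leaves with agar blocks of S. sclerotiorum grown on PDA. Kept humid at 20° C for 2 days; lesion proportion scored and control value calculated, in duplicate.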

[1] = tested on: Blumeria graminis f. sp. tritici; test: Test on the preventive effect against wheat powdery mildew; assay type: in vivo; settings: 168 h, test solution A 500 ppm, 5 ml per pot, wheat 1.3-leaf stage, 7 days after inoculation
Summary of the method: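 Compounds formulated as 20 wt % emulsifiable concentrates and diluted with water to 500 ppm; 5 ml per pot applied to wheat (Norin 61) at the 1.3-leaf stage. Conidia inoculated one day later in a 20° C greenhouse; lesion proportion scored after 7 days as control value, in duplicate.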

[2] = tested on: Phaeosphaeria nodorum (Synonym: Septoria nodorum); test: Test on the preventive effect against wheat glume blotch; assay type: in vivo; settings: Parastagonospora nodorum, 144 h; test solution A 500 ppm, 5 ml per pot, wheat 1.3-leaf stage, 2 days inoculation chamber then 6 days at 20° C.
Summary of the method: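 Wheat (cv. Haruyutaka) at 1.3-leaf stage sprayed with compound at 500 ppm as diluted emulsifiable concentrate, then inoculated one day later with conidial suspension. Kept 2 days at 20° C and 100% RH, then 6 days in a greenhouse at 20° C. Control value derived from lesion proportion on inoculated leaves; duplicate.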

Asperaillus niger = test: Test on the antifungal activity against Asperaillus niger; assay type: cell-based; settings: 48 h; test solution B 100 ppm, 10 μl per well, 96 well plate, 25° C. dark, 2 days after treatment; read-out: efficacy (flora area ratio relative to non-treated well)
Procedure: Compounds of the present invention were dissolved in dimethyl sulfoxide to prepare 1 wt % solutions. Then, distilled water was added to dilute the solutions to the prescribed concentration (100 ppm), and the obtained solutions were used in the following the Test Examples 9 to 12. 60 μl of a potato dextrose 1% agar medium was added to each well of a 96 well plate, and 30 μl of sterilized water containing spores of Asperaillus niger (10 spores/3 μl) was added to each well. Further, 10 μl per well of test solution B of the compounds of the present invention was added, and the plate was left at rest at 25° C. under dark conditions. 2 days after treatment, the flora area ratio (%) was determined to calculate the efficacy (%) relative to the non-treated well in accordance with the following formula. Efficacy (%)=[1−(flora area ratio in treated plot/flora area ratio in non-treated well)]×100

[3] = tested on: Barber pole worm (Haemonchus contortus); test: Insecticidal test against Barber pole worm (eggs, 96 well plate); assay type: in vivo; settings: 96 h, test solution B 100 ppm, 10 μl per well, 25° C. dark, 4 days after treatment, read-out: efficacy (unhatched eggs and inactive larvae relative to non-treated)
Procedure: Compounds of the present invention were dissolved in dimethyl sulfoxide to prepare 1 wt % solutions. Then, distilled water was added to dilute the solutions to the prescribed concentration (100 ppm), and the obtained solutions were used in the following the Test Examples 9 to 12. 60 μl of a potato dextrose 1% agar medium was added to each well of a 96 well plate, and 30 μl of sterilized water containing eggs of Barber pole worm (Haemonchus contortus) (10 eggs/3 μl) was added to each well. Further, 10 μl per well of test solution B of the compounds of the present invention was added, and the plate was left at rest at 25° C. under dark conditions.

| Compound | pest or weed control at 500 µg/mL (Botrytis cinerea) [%] | pest or weed control at 500 µg/mL (Sclerotinia sclerotiorum) [%] | pest or weed control at 500 µg/mL [1] [%] | pest or weed control at 500 µg/mL [2] [%] | inhibition of growth at 100 µg/mL (Asperaillus niger) [%] | pest or weed control at 100 µg/mL [3] [%] |
| --- | --- | --- | --- | --- | --- | --- |
| CC(CNC(=O)c1cccnc1C(F)F)c1ncc(C#CC2CC2)cc1Cl (stereo not drawn) [3-006] | ≥ 70 | ≥ 70 | ≥ 70 | ≥ 70 | ≥ 50 | ≥ 50 |
| CSC(CNC(=O)c1cccnc1C(F)F)c1ncc(C#CC2CC2)cc1Cl (stereo not drawn) [3-020] | ≥ 70 | ≥ 70 | ≥ 70 | ≥ 70 | ≥ 50 | ≥ 50 |
| CC(CNC(=O)c1ccccc1C(F)(F)F)c1ncc(C#CC2CC2)cc1Cl (stereo not drawn) [1-007, N-[2-[3-chloro-5-(cyclopropylethynyl)pyridin-2-yl]propyl]-2-(trifluoromethyl)benzamide] | ≥ 70 | ≥ 70 | ≥ 70 | ≥ 70 | ≥ 50 | ≥ 50 |
| COC(CNC(=O)c1cn(C)nc1C(F)F)c1ncc(C#CC2CC2)cc1Cl (stereo not drawn) [8-019] | ≥ 70 | ≥ 70 | ≥ 70 | ≥ 70 | ≥ 50 | ≥ 50 |
| O=C(NCC(F)(F)c1ncc(C#CC2CC2)cc1Cl)c1ccccc1C(F)(F)F [1-005] | ≥ 70 | ≥ 70 | ≥ 70 | ≥ 70 | ≥ 50 | ≥ 50 |
| Cn1cc(C(=O)NCC(F)(F)c2ncc(C#CC3CC3)cc2Cl)c(C(F)F)n1 [8-003] | ≥ 70 | ≥ 70 | ≥ 70 | ≥ 70 | ≥ 50 | ≥ 50 |
| Cn1cc(C(=O)NCCc2ncc(C#CC(C)(C)C)cc2Cl)c(C(F)F)n1 [8-002] | ≥ 70 | ≥ 70 | ≥ 70 | ≥ 70 | ≥ 50 | ≥ 50 |
| O=C(NCC(c1ncc(C#CC2CC2)cc1Cl)C1CC1)c1cccnc1C(F)F (stereo not drawn) [3-008] | ≥ 70 | ≥ 70 | ≥ 70 | ≥ 70 | ≥ 50 | ≥ 50 |
| Cn1cc(C(=O)NCCc2ncc(C#CC3CC3)cc2Cl)c(C(F)F)n1 [8-001] | ≥ 70 | ≥ 70 | ≥ 70 | ≥ 70 | ≥ 50 | ≥ 50 |
| C=C(CNC(=O)c1cn(C)nc1C(F)F)c1ncc(C#CC2CC2)cc1Cl [8-011, N-[2-[3-chloro-5-(cyclopropylethynyl)pyridin-2-yl]-2-propenyl]-3-difluoromethyl-1-methyl-1H-pyrazole-4-carboxamide] | ≥ 70 | ≥ 70 | ≥ 70 | ≥ 70 | ≥ 50 | ≥ 50 |
| COC(c1ncc(C#CC2CC2)cc1Cl)C(C)NC(=O)c1sc(C)nc1C(F)F (stereo not drawn) [9-006a] | ≥ 70 | ≥ 70 | ≥ 70 | ≥ 70 | ≥ 50 | ≥ 50 |
